# Results from PubChem BioAssay (NCI).
#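 1) Cells in 96-well plates. 2) Compound, 48 h, 5 concentrations. 3) Linear interpolation between surrounding doses. 4) Unreached endpoint = highest concentration. GI50 = concentration required for 50% inhibition of growth. TGI marks complete inhibition of growth.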
# Experiments:
# Test in all cases: NCI tumour cell line growth inhibition, 48 h
# SF-295 CNS = tested on: SF-295 CNS
# SK-MEL-2 melanoma = tested on: SK-MEL-2 melanoma
# UO-31 renal = tested on: UO-31 renal
# HCC-2998 colon = tested on: HCC-2998 colon
# K-562 leukemia = tested on: K-562 leukemia
# A498 renal = tested on: A498 renal
# SK-MEL-28 melanoma = tested on: SK-MEL-28 melanoma
# MOLT-4 leukemia = tested on: MOLT-4 leukemia
# CCRF-CEM leukemia = tested on: CCRF-CEM leukemia
# A549 NSCLC = tested on: A549 NSCLC
# SN12C renal = tested on: SN12C renal
# SF-539 CNS = tested on: SF-539 CNS
# KM12 colon = tested on: KM12 colon
# ACHN renal = tested on: ACHN renal
# OVCAR-8 ovarian = tested on: OVCAR-8 ovarian
# NCI-H226 lung = tested on: NCI-H226 lung
# RXF 393 renal = tested on: RXF 393 renal
# MCF7 breast = tested on: MCF7 breast
# SW-620 colon = tested on: SW-620 colon
# SK-OV-3 ovarian = tested on: SK-OV-3 ovarian
# T-47D breast = tested on: T-47D breast
# SK-MEL-5 melanoma = tested on: SK-MEL-5 melanoma
# HCT-116 colon = tested on: HCT-116 colon
# OVCAR-3 ovarian = tested on: OVCAR-3 ovarian
# BT-549 breast = tested on: BT-549 breast
# HOP-62 NSCLC = tested on: HOP-62 NSCLC
# SR leukemia = tested on: SR leukemia
# SF-268 CNS = tested on: SF-268 CNS
# DU-145 prostate = tested on: DU-145 prostate
# U251 CNS = tested on: U251 CNS
# MDA-MB-231 breast = tested on: MDA-MB-231 breast
# CAKI-1 renal = tested on: CAKI-1 renal
# LOX IMVI melanoma = tested on: LOX IMVI melanoma
# MALME-3M melanoma = tested on: MALME-3M melanoma
# EKVX NSCLC = tested on: EKVX NSCLC
# HS 578T breast = tested on: HS 578T breast
# MDA-MB-435 = tested on: MDA-MB-435
# OVCAR-4 ovarian = tested on: OVCAR-4 ovarian
# 786-0 renal = tested on: 786-0 renal
# HCT-15 colon = tested on: HCT-15 colon
# UACC-257 melanoma = tested on: UACC-257 melanoma
# OVCAR-5 ovarian = tested on: OVCAR-5 ovarian
# NCI/ADR-RES ovarian = tested on: NCI/ADR-RES ovarian
# SNB-19 CNS = tested on: SNB-19 CNS
# RPMI-8226 leukemia = tested on: RPMI-8226 leukemia
# NCI-H460 lung = tested on: NCI-H460 lung
# HOP-92 NSCLC = tested on: HOP-92 NSCLC
# IGROV1 ovarian = tested on: IGROV1 ovarian
# PC-3 prostate = tested on: PC-3 prostate
# HT29 colon = tested on: HT29 colon
# UACC-62 melanoma = tested on: UACC-62 melanoma
# NCI-H23 lung = tested on: NCI-H23 lung
# M14 melanoma = tested on: M14 melanoma
# COLO 205 colon = tested on: COLO 205 colon
# TK-10 renal = tested on: TK-10 renal
# HL-60(TB) leukemia = tested on: HL-60(TB) leukemia
# SNB-75 CNS = tested on: SNB-75 CNS
# NCI-H522 lung = tested on: NCI-H522 lung
structure (smiles),measurement,setting,value
COc1cc2c(cc1C[C@H]1[C@@H]3C[C@H]4c5c(c6ccccc6n5C)C[C@@H]([C@@H]3CO[C@]1(C)OC(C)=O)N4C)c1c(n2C)C2C[C@H]3C(C(C)=O)=COC[C@H]3[C@H](C1)N2C,TGI,SF-295 CNS,10.4 µM
same,TGI,SK-MEL-2 melanoma,15.2 µM
same,TGI,UO-31 renal,> 25 µM
same,TGI,HCC-2998 colon,0.246 µM
same,TGI,K-562 leukemia,> 25 µM
same,TGI,A498 renal,> 25 µM
same,TGI,SK-MEL-28 melanoma,> 25 µM
same,TGI,MOLT-4 leukemia,> 25 µM
same,TGI,CCRF-CEM leukemia,5.84 µM
same,TGI,A549 NSCLC,> 25 µM
same,TGI,SN12C renal,> 25 µM
same,TGI,SF-539 CNS,5.87 µM
same,TGI,KM12 colon,5.27 µM
same,TGI,ACHN renal,10.1 µM
same,TGI,OVCAR-8 ovarian,8.83 µM
same,TGI,NCI-H226 lung,21.7 µM
same,TGI,RXF 393 renal,6.04 µM
same,TGI,MCF7 breast,> 25 µM
same,TGI,SW-620 colon,11.3 µM
same,TGI,SK-OV-3 ovarian,> 25 µM
same,TGI,T-47D breast,17.2 µM
same,TGI,SK-MEL-5 melanoma,6.79 µM
same,TGI,HCT-116 colon,5.39 µM
same,TGI,OVCAR-3 ovarian,5.98 µM
same,TGI,BT-549 breast,13.3 µM
same,TGI,HOP-62 NSCLC,6.29 µM
same,TGI,SR leukemia,7.62 µM
same,TGI,SF-268 CNS,24 µM
same,TGI,DU-145 prostate,> 25 µM
same,TGI,U251 CNS,> 25 µM
same,TGI,MDA-MB-231 breast,11.2 µM
same,TGI,CAKI-1 renal,9.06 µM
same,TGI,LOX IMVI melanoma,> 25 µM
same,TGI,MALME-3M melanoma,6.42 µM
same,TGI,EKVX NSCLC,2.24 µM
same,TGI,HS 578T breast,13.3 µM
same,TGI,MDA-MB-435,> 25 µM
same,TGI,OVCAR-4 ovarian,> 25 µM
same,TGI,786-0 renal,5.89 µM
same,TGI,HCT-15 colon,6.25 µM
same,TGI,UACC-257 melanoma,8.01 µM
same,TGI,OVCAR-5 ovarian,11.6 µM
same,TGI,NCI/ADR-RES ovarian,8.32 µM
same,TGI,SNB-19 CNS,> 25 µM
same,TGI,RPMI-8226 leukemia,3.56 µM
same,TGI,NCI-H460 lung,8.21 µM
same,TGI,HOP-92 NSCLC,> 25 µM
same,TGI,IGROV1 ovarian,> 25 µM
same,TGI,PC-3 prostate,2.7 µM
same,TGI,HT29 colon,4.86 µM
same,TGI,UACC-62 melanoma,14.6 µM
same,TGI,NCI-H23 lung,> 25 µM
same,TGI,M14 melanoma,6.24 µM
same,TGI,COLO 205 colon,6.19 µM
same,TGI,TK-10 renal,16.1 µM
Cc1cc(=O)[nH]c(N/N=C/c2cc(Br)ccc2O)n1,GI50,SF-295 CNS,0.193 µM
same,TGI,SF-295 CNS,0.568 µM
same,GI50,SK-MEL-2 melanoma,49.3 µM
same,TGI,SK-MEL-2 melanoma,> 100 µM
same,GI50,UO-31 renal,0.435 µM
same,TGI,UO-31 renal,3.21 µM
same,GI50,HCC-2998 colon,1.85 µM
same,TGI,HCC-2998 colon,> 100 µM
same,GI50,K-562 leukemia,0.605 µM
same,TGI,K-562 leukemia,> 100 µM
same,GI50,A498 renal,4.06 µM
same,TGI,A498 renal,25.4 µM
same,GI50,SK-MEL-28 melanoma,4.55 µM
same,TGI,SK-MEL-28 melanoma,> 100 µM
same,GI50,MOLT-4 leukemia,0.432 µM
same,TGI,MOLT-4 leukemia,15.5 µM
same,GI50,CCRF-CEM leukemia,0.441 µM
same,TGI,CCRF-CEM leukemia,> 100 µM
same,GI50,A549 NSCLC,1.84 µM
same,TGI,A549 NSCLC,> 100 µM
same,GI50,SN12C renal,0.809 µM
same,TGI,SN12C renal,> 100 µM
same,GI50,SF-539 CNS,2.78 µM
same,TGI,SF-539 CNS,39 µM
same,GI50,KM12 colon,0.869 µM
same,TGI,KM12 colon,> 100 µM
same,GI50,ACHN renal,0.927 µM
same,TGI,ACHN renal,> 100 µM
same,GI50,OVCAR-8 ovarian,0.369 µM
same,TGI,OVCAR-8 ovarian,35.6 µM
same,GI50,NCI-H226 lung,2.1 µM
same,TGI,NCI-H226 lung,> 100 µM
same,GI50,HL-60(TB) leukemia,0.446 µM
same,TGI,HL-60(TB) leukemia,5.68 µM
same,GI50,RXF 393 renal,3.35 µM
same,TGI,RXF 393 renal,> 100 µM
same,GI50,MCF7 breast,0.318 µM
same,TGI,MCF7 breast,16.6 µM
same,GI50,SW-620 colon,0.488 µM
same,TGI,SW-620 colon,> 100 µM
same,GI50,SK-OV-3 ovarian,1.34 µM
same,TGI,SK-OV-3 ovarian,> 100 µM
same,GI50,T-47D breast,0.437 µM
same,TGI,T-47D breast,56.7 µM
same,GI50,HCT-116 colon,0.353 µM
same,TGI,HCT-116 colon,> 100 µM
same,GI50,OVCAR-3 ovarian,0.34 µM
same,TGI,OVCAR-3 ovarian,38.6 µM
same,GI50,BT-549 breast,11 µM
same,TGI,BT-549 breast,> 100 µM
same,GI50,HOP-62 NSCLC,1.41 µM
same,TGI,HOP-62 NSCLC,> 100 µM
same,GI50,SR leukemia,0.896 µM
same,TGI,SR leukemia,> 100 µM
same,GI50,SNB-75 CNS,3.33 µM
same,TGI,SNB-75 CNS,> 100 µM
same,GI50,SF-268 CNS,0.728 µM
same,TGI,SF-268 CNS,> 100 µM
same,GI50,DU-145 prostate,1.78 µM
same,TGI,DU-145 prostate,> 100 µM
same,GI50,U251 CNS,0.808 µM
same,TGI,U251 CNS,> 100 µM
same,GI50,MDA-MB-231 breast,0.976 µM
same,TGI,MDA-MB-231 breast,> 100 µM
same,GI50,CAKI-1 renal,1.44 µM
same,TGI,CAKI-1 renal,4.89 µM
same,GI50,LOX IMVI melanoma,0.634 µM
same,TGI,LOX IMVI melanoma,> 100 µM
same,GI50,EKVX NSCLC,1.82 µM
same,TGI,EKVX NSCLC,7.67 µM
same,GI50,HS 578T breast,7.1 µM
same,TGI,HS 578T breast,> 100 µM
same,GI50,MDA-MB-435,1.77 µM
same,TGI,MDA-MB-435,81.5 µM
same,GI50,OVCAR-4 ovarian,0.383 µM
same,TGI,OVCAR-4 ovarian,33.8 µM
same,GI50,786-0 renal,2.35 µM
same,TGI,786-0 renal,> 100 µM
same,GI50,HCT-15 colon,0.606 µM
same,TGI,HCT-15 colon,> 100 µM
same,GI50,UACC-257 melanoma,0.383 µM
same,TGI,UACC-257 melanoma,9.12 µM
same,GI50,OVCAR-5 ovarian,5.07 µM
same,TGI,OVCAR-5 ovarian,> 100 µM
same,GI50,NCI/ADR-RES ovarian,0.35 µM
same,TGI,NCI/ADR-RES ovarian,> 100 µM
same,GI50,SNB-19 CNS,3.56 µM
same,TGI,SNB-19 CNS,> 100 µM
same,GI50,RPMI-8226 leukemia,0.843 µM
same,TGI,RPMI-8226 leukemia,> 100 µM
same,GI50,NCI-H460 lung,0.488 µM
same,TGI,NCI-H460 lung,20.5 µM
same,GI50,HOP-92 NSCLC,19.3 µM
same,TGI,HOP-92 NSCLC,> 100 µM
same,GI50,NCI-H522 lung,3.37 µM
same,TGI,NCI-H522 lung,22 µM
same,GI50,IGROV1 ovarian,0.257 µM
same,TGI,IGROV1 ovarian,0.706 µM
same,GI50,PC-3 prostate,0.698 µM
same,TGI,PC-3 prostate,> 100 µM
same,GI50,HT29 colon,13.3 µM
same,TGI,HT29 colon,> 100 µM
same,GI50,NCI-H23 lung,0.481 µM
same,TGI,NCI-H23 lung,> 100 µM
same,GI50,M14 melanoma,0.53 µM
same,TGI,M14 melanoma,> 100 µM
same,GI50,COLO 205 colon,3.45 µM
same,TGI,COLO 205 colon,32.5 µM
same,GI50,TK-10 renal,21.5 µM
same,TGI,TK-10 renal,> 100 µM
